Assay results reported in EP3031809A1, “2-phenyl-7,7a-dihydro-3aH-pyran[3,4-d]oxazol-6(4H)-ones” (CONSEJO SUPERIOR DE INVESTIGACIONES CIENTIFICAS, priority 2014, dated 2016).

Tests used:
BT-474 = assay: Cell viability (cytotoxicity) assay with MTT; type: cell-based; settings: for TOXICITY 1uM BT-474 (% viab. approx .): approximate viability percentage
Description: (§1) In order to determine the toxicity of the compound, cell viability assays were performed with MTT on breast tumour lines MCF-7, BT-474 and MDA-MB-436. […] The fact that cell viability was not affected at a high concentration reflects the low toxicity of the compound at the dose required for its effectiveness in functional assays.

MCF-7 [1] = assay: Cell viability (cytotoxicity) assay with MTT; type: cell-based; settings: for TOXICITY 1uM MCF-7 (% viab. approx .): approximate viability percentage
Description: as §1

MCF-7 [2] = assay: Sphere test (formation of tumour mammospheres); type: cell-based; parameters: ACTIVITY IN SPHERE TEST % sphere formation MCF-7: concentration or dose not given beside the values; settings: for ACTIVITY IN SPHERE TEST % sphere formation MCF-7: MCF-7 mammospheres, 7 days in suspension culture
Excerpt: (§2) The formation of spheres derived from breast tumours has been described as an effective method for enrichment of cell cultures in CSCs because of the higher ability of cells derived from these culture in generating tumours in vivo when transplanted in immunocompromised mice (Ponti D, et al., (2005) Cancer Res 65(13):5506-11, 34). A directly proportional relationship is therefore established between the percentage of the CSCs subpopulation in the culture and the ability to form spheres. Tumour cell lines growing in suspension are used in these tests in order to enrich the culture in tumour stem cells. CSCs are the only cells capable of proliferating in these conditions, giving rise to structures named spheres. In fact, the cells that grow in suspension acquire the properties of tumour stem cells and are used in the assays used in this patent for identifying drugs effective against them. In principle, compounds that affect tumour stem cells should slow their growth and potentially cause their death. This assay is tuned for breast cancer cell lines according to Leis, O., et al (2012), Oncogene, 31, 1354-1365. Cells are seeded at a density of 1,000 cells/mL on 6-well plates, previously treated with poly-HEMA (poly(2-hydroxyethyl methacrylate)), Sigma-Aldrich) to prevent the cells adhering to the plastic of the plate. A DMEM high glucose medium supplemented with F12 (Nutrient Mixture F-12 HAM, Sigma), B27 (B27 Supplement 50X, Gibco 17504-044) and growth factors, EGF and bFGF is used for culture. Methylcellulose at a final concentration of 0.5% was added to increase the viscosity of the culture medium. Cells were incubated for 7 days at 37° C, adding growth factors (20 ng/mL of each factor), every two days and counted under a microscope.

BT474 = assay: Sphere test (formation of tumour mammospheres); type: cell-based; parameters: ACTIVITY IN SPHERE TEST % sphere formation BT474: concentration or dose not given beside the values; settings: for ACTIVITY IN SPHERE TEST % sphere formation BT474: BT474 mammospheres, 7 days in suspension culture
Excerpt: as §2

MDA-MB-436 [3] = assay: Sphere test (formation of tumour mammospheres); type: cell-based; settings: for ACTIVITY IN SPHERE TEST % sphere formation MDA-MB-436: MDA-MB-436 mammospheres, 7 days in suspension culture
Excerpt: as §2

MDA-MB-436 [4] = assay: Cell viability (cytotoxicity) assay with MTT; type: cell-based; settings: 1µM and tenfold higher dose
Description: as §1

HIF = assay: HRE-LUC test (9XHRE-LUC luciferase reporter of HIF activity in a breast tumour line); type: cell-based, human; settings: for inhibition at 5 µM: Homo sapiens, inhibition percentage, read-out: HIF HRE-LUC (% inhib. 5µM)
Excerpt: In order to identify direct inhibitors of HIF activity, a breast tumour line MCF7 was first constructed containing the deoxyribonucleic acid sequences (DNA) of the region located between the positions -985 and -951 of the human vascular endothelium growth factor (hVEGF), repeated nine times (X9) and fused to the luciferase reporter gene (LUC) (Moreno-Manzano V, et al (2010) JBC 285 (2) 1333-1342). This plasmid called 9XHRE-LUC, kindly given by Dr Manuel Ortiz de Landazuri of the La Princesa Hospital of Madrid, was prepared using a commercial kit (Endofree Maxi-Prep; Qiagen, Inc., Valencia, CA). Transfections were performed with Lipofectamine (Invitrogen) according to the manufacturer's instructions.

SOX-2 = assay: Reporter of the promoter region of enhancer R1 of SOX-2 in a transiently transfected breast tumour line; type: cell-based; settings: breast tumour line MDA_MB-436 / HRE9X-LUC; cells cultivated in suspension; Fig. 2
Excerpt: In order to identify whether the direct inhibitors of mammosphere formation and HIF activity inhibited the transcriptional activation of SOX2, reported in breast cancer CSCs (Leis, O., et al (2012), Oncogene, 31, 1354-1365), breast tumour lines were constructed, transiently transfected with the promoter region of enhancer R1 of SOX-2 by Lipofectamine (Invitrogen) according to the manufacturer's instructions. Their induction on cultivating the cells in suspension was compared and the inhibition of this activation was measured on treating the cells with the inhibitor IQM11PS04.

Structure (SMILES)	TOXICITY 1uM BT-474 (% viab. approx .) (BT-474)	TOXICITY 1uM MCF-7 (% viab. approx .) (MCF-7 [1])	ACTIVITY IN SPHERE TEST % sphere formation MCF-7 (MCF-7 [2])	ACTIVITY IN SPHERE TEST % sphere formation BT474 (BT474)	ACTIVITY IN SPHERE TEST % sphere formation MDA-MB-436 (MDA-MB-436 [3])	percentage of cell death in treated cultures (BT-474; 1µM and tenfold higher dose, BT-474)	percentage of cell death in treated cultures (MCF-7 [1]; 1µM and tenfold higher dose, MCF-7)	percentage of cell death in treated cultures (MDA-MB-436 [4])	action on HIF-2α (HIF; 1µM and tenfold higher dose)	inhibition at 5 µM (HIF)	inhibition in the expression of luciferase (HRE-LUC test) (HIF; increasing concentrations, Fig. 1)	inhibition of the induction of SOX2 (expression of the promoter region of enhancer R1 of SOX-2) (SOX-2)	inhibitory ability in the formation of mammospheres (MCF-7 [2]; 1 µM added in the final stage of sphere formation, MCF7, versus DMSO)	inhibitory ability in the formation of mammospheres (MDA-MB-436 [3]; 1 µM added in the final stage of sphere formation, MDA-MB-436, versus DMSO)	inhibitory ability in the formation of mammospheres (BT474; 1 µM added in the final stage of sphere formation, BT474, versus DMSO)
COc1cccc(C2=NC3COC(=O)CC3O2)c1 (stereo not shown) [IQM11PS01, 2-(3-methoxyphenyl)-7,7a-dihydro-3aH-pyrano[3,4-d]oxazole-6(4H)-one]	97%	115%	0%	2%	–	–	–	–	–	–	–	–	–	–	–
COc1cc(OC)cc(C2=NC3COC(=O)CC3O2)c1 (stereo not shown) [IQM11PS02, 2-(3,5-dimethoxyphenyl)-7,7a-dihydro-3aH-pyrano[3,4-d]oxazole-6(4H)-one]	55%	99%	0%	4%	–	–	–	–	–	–	–	–	–	–	–
O=C1CC2OC(c3cc(OCc4ccccc4)cc(OCc4ccccc4)c3)=NC2CO1 (stereo not shown) [IQM11PS03, 2-(3,5-bis(benzyloxy)phenyl)-7,7a-dihydro-3aH-pyrano[3,4-d]oxazole-6(4H)-one]	97%	98%	0%	12%	88%	–	–	–	–	–	–	–	–	–	–
CCCOc1cccc(C2=NC3COC(=O)CC3O2)c1 (stereo not shown) [IQM11PS04, 2-(3-propoxyphenyl)-7,7a-dihydro-3aH-pyrano[3,4-d] oxazole-6(4H)-one]	89%	109%	0%	1%	–	did not cause a significant increase	did not cause a significant increase	did not cause a significant increase	significant action	92%	significantly inhibits	significantly inhibits	significant inhibitory ability	significant inhibitory ability	significant inhibitory ability
CCCCCOc1cccc(C2=NC3COC(=O)CC3O2)c1 (stereo not shown) [IQM11PS05, 2-(3-pentyloxyphenyl)-7,7a-dihydro-3aH-pyrano[3,4-d]oxazole-6(4H)-one]	168%	92%	0%	8%	–	–	–	–	–	96%	–	–	–	–	–
O=C1CC2OC(c3cccc(OCCN4CCOCC4)c3)=NC2CO1 (stereo not shown) [IQM11PS06, 2-(3-(2-morpholinoethoxy)phenyl)-7,7a-dihydro-3aH-pyrano[3,4-d]oxazole-6(4H)-one]	86%	97%	20%	27%	79%	–	–	–	–	–	–	–	–	–	–
